Measurements taken from patent US11713305B2, “Zinc sensors for in vivo imaging of beta-cell function by MRI” (The Board of Regents of the University of Texas System, priority 2017, dated 2023).
Like-named read-outs stand apart in the source and are kept apart here.

Columns and labels:
[1] = comparison Dy complexes; cited from earlier work
[2] = cited from earlier work
[3] = Kinetic inertness (transmetalation by Zn(II) in phosphate buffer); assay type: physicochemical; details: four equivalents of Zn^2+ in phosphate buffer (pH=7), 310 K
Text: Shortly after the first confirmed clinical cases of nephrogenic systemic fibrosis (NSF), increased efforts have been made to design agents with high thermodynamic stability and kinetic inertness (Kallen et al., 2008; Reilly, 2008; Rofsky et al., 2008; Wiginton et al., 2008; Abujuden et al., 2009). The sensors shown here are very stable macrocyclic DO3A-monoamide derivatives with reported log KML>20. However, given that the agents reported here also have a high affinity for Zn^2+ ions, and Zn^2+ has been implicated as the major competing ion for transmetalation of Gd^3+ agents derived from linear polyamine ligands, the kinetic rate of Gd^3+ release is arguably the most critical factor in determining in vivo toxicity (Laurent et al., 2010). Using a previously published method (Laurent et al., 2010) consisting of incubating each agent with four equivalents of Zn^2+ in phosphate buffer (pH=7), we compared the kinetic stability of the agents reported here with the FDA-approved agent Magnevist® (GdDTPA, cf. FIG. 7).
Kinetic inertness was determined according to published procedures with minor modifications (Laurent et al., 2010; Silverio et al., 2009). Stock solutions of phosphate buffer (67 mM, pH=7.4), Gd(III) chelates (10 mM) and ZnCl2 (231 mM) were prepared first. Calculated volumes of stock solutions or water were pipetted into small glass vials to obtain a test solution of 300 μL with 30 mM phosphate, 1.5 mM Gd(III) chelate, and 6.0 mM Zn(II). Samples were measured 15 minutes after the sample temperature stabilized at 310 K. During the entire experiment, the samples inside the NMR tubes were kept in an incubator at 310 K. The T1 of the solutions was determined at 310 K and 0.47 T (20 MHz) at various time points within 7 days. As a reference, GdDTPA was analyzed under the same conditions. The R1^P relaxation rate is obtained by subtracting the diamagnetic contribution of the water relaxation (0.28 s-1) from the observed relaxation rate R1=(1/T1).

[4] = test system: mouse pancreas; assay: In vivo MR imaging of glucose stimulated insulin secretion (GSIS) in the mouse pancreas; parameters: species or system C57B1/6 mice; details: over the first 10-15 min after injection; 0.07 mmol/kg i.v., glucose IP
Text: Both phases of insulin secretion are considered essential, but the early RRP phase that is thought to be the first signal reduced during the development of type 2 diabetes (Komatsu et al., 2013; Hosker et al., 1989). In principle, both phases of insulin secretion should be detectable by MRI if enough sensor is present in the extracellular space during the time-course of these events. Biphasic GSIS was not detected by MRI in previous experiments using the first generation Zn^2+ sensors with a high affinity for Zn^2+ but we hypothesized that GSIS may be more easily detected using these second-generation agents having a much lower affinity for Zn^2+. To test this, dynamic MRI scans were collected after administering either GdL1, GdL2, GdL3 or GdL4 to C57B1/6 mice via a tail vein (0.07 mmol/kg). Nearly simultaneously with agent injection, a bolus (50 μL) of 20% w/v glucose was administered IP to stimulate secretion of insulin.
All animal experiments were performed in accordance with guidelines set by the UT Southwestern Institutional Animal Care and Use Committee (IACUC). Male C57b1/6 mice were fasted for at least 12 hours before imaging experiments. The animals were anaesthetized with isofluorane and catheterized via the tail vein. Once the animals were secured inside a 38 mm volume coil, the pancreas was positioned in the center of the 9.4 T Varian MRI scanner. Two 3D T1-weighted gradient echo pre-injection scans were obtained (TE/TR=1.69/3.34 ms, NEX8, Matrix=128×128 ×128). 70 μl of 20 mM contrast agent were injected i.v. and 50 μl of 20% w/v D-glucose were injected intraperitoneally and consecutive 3D T1-weighted scans were obtained sequentially to monitor signal enhancement in the pancreas. Identification of the pancreas was accomplished by locating the tissues surrounded by the spleen, stomach, and kidneys. A total of 3 animals were scanned per group and images were quantified and analyzed using ImageJ (National Institutes of Health, Bethesda, Md.). The signal intensities from ROIs of the tip of the pancreas were measured before, at every ˜3-4 minutes post D-glucose injection over 30 minutes total. The values were normalized to the signal intensity obtained from a water phantom placed on the mouse abdomen. Contrast enhancement was calculated using the formula
[formula] Statistical analysis was performed by comparing the mean values using a two-tailed t-test. Statistical difference was evaluated using t-scores and p-values at a 95 and 99% confidence level.

[5] = target: T1, HSA (Homo sapiens, UniProt P02768); details: used in fitting; read-out: KD for dansylglycine (HSA); cited from earlier work
T1 construct: purchased Sigma-Aldrich

[6] = Measured at 25° C., Powell et al., 1994, 1996

T1 sequence (P02768 25-609): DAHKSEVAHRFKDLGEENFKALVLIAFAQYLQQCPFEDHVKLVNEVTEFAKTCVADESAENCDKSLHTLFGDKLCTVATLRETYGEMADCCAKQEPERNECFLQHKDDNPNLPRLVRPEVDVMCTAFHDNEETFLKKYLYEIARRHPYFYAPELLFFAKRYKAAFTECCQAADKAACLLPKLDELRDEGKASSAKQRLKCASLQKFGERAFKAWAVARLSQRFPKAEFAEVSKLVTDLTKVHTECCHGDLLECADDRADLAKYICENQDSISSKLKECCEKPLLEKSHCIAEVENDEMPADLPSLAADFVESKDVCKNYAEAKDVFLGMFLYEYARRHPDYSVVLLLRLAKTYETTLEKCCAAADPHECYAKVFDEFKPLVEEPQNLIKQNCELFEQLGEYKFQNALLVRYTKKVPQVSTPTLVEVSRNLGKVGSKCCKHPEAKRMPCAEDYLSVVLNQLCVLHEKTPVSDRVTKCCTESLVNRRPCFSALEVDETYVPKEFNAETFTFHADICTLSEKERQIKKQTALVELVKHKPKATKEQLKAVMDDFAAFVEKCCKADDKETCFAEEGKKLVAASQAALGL

Compound	1/T2m^298 [1]	A1 [1]	A2 [1]	ER [1]	kex^298 [1]	ΔH^‡ [1]	further results
O=C([O-])CN1CCN(CC(=O)[O-])CCN(CC(=O)[O-])CCN(CC(=O)[O-])CC1.[Dy+3] [DyDOTA]	20 10^4 s^−1	−50 10^6rad s^−1K T^−1	0 10^9rad s^−1K^2 T^−1	-21.5 kcal/mol	70 10^6 s^−1	21.5 kcal/mol	–
O=C([O-])CN1CCN(CC(=O)[O-])CCN(CC(=O)[O-])CCN(CC(=O)[O-])CC1.[Gd+3] [GdDOTA]	–	–	–	–	–	–	hyperfine coupling constant (AO/ℏ) [2, 6]: −3.7 ×10^6 rad/s; water exchange rate kex [2, 6]: 4.1e+06 s⁻¹; ER ([2]; reference complexes): 3.85 kcal/mol; EV ([2]; reference complexes): 0.239 kcal/mol; ΔH‡ ([2]; reference complexes): 11.9 kcal/mol; Δ^2 ([2]; reference complexes): 0.16 10^20 s^−2; τRO^298 ([2]; reference complexes): 77 ps; τV^298 ([2]; reference complexes): 11 ps
CNC[C@H](O)[C@@H](O)[C@H](O)[C@H](O)CO.CNC[C@H](O)[C@@H](O)[C@H](O)[C@H](O)CO.O=C([O-])CN(CCN(CC(=O)[O-])CC(=O)O)CCN(CC(=O)[O-])CC(=O)O.[Gd+3] [Magnevist, reference compound]	–	–	–	–	–	–	kinetic stability against transmetalation [3]: some transmetalation
O=C([O-])CNC(=O)CN1CCN(CC(=O)NCC(=O)[O-])CCN(CC(=O)NCC(=O)[O-])CCN(CC(=O)NCC(=O)[O-])CC1.[Dy+3] [Dy DOTA-(gly)4]	1000 10^4 s^−1	−50 10^6rad s^−1K T^−1	0 10^9rad s^−1K^2 T^−1	-12 kcal/mol	0.09 10^6 s^−1	12.7 kcal/mol	–
CC(O)CN1CCN(CC(=O)[O-])CCN(CC(=O)[O-])CCN(CC(=O)[O-])CC1.[Gd+3] (centres unmarked) [GdHPDO3A, reference compound]	–	–	–	–	–	–	T1-weighted MR image enhancement in pancreatic tissues and kidneys [4]: significant image enhancements
CN(C)c1cccc2c(S(=O)(=O)NCC(=O)O)cccc12 [dansylglycine]	–	–	–	–	–	–	Kd [5]: 2500 nM
